Where a name gives a salt, the structure may show the parent alone.

One assay has as its system guinea pig trachea. As to the kind of experiment: relaxing action on guinea pig trachea contracted beforehand with methacholine (in vitro, organ bath). It counts as cell-based. The note with it: Cavia porcellus, read-out: -log[EC50 (mol/l)] (converted). On the procedure: For this, the relaxing action on a guinea pig trachea which has been contracted beforehand with a suitable dose of methacholine is measured for the compounds to be investigated. The trachea of male guinea pigs (200-300 g) is removed and divided into individual segments and each segment is suspended in an organ bath with 118.5 mM NaCl, 4.7 mM KCl, 1.2 mM MgSO4, 2.5 mM CaCl2, 1.2 mM KH2 PO4, 25 mM NaHCO3 and 10 mM glucose at 37° C. Oxygen to which 5% of CO2 has been added is passed permanently through the solution. After stabilization, the trachea is contracted with a suitable dose of methacholine. Thereafter, a dose/effect curve is plotted with the test substances in a cumulative manner. The concentration (mol/l) which corresponds to 50% of the maximum effect (EC50) is then determined from this curve. This EC50 is thus a measure of the activity of the compounds according to the invention.
The serial number in the table agrees with the number of the compounds in the examples. The number n indicates the number of investigations.
Take `Nc1c(Cl)cc(C(O)CNCCOCCOC(=O)Cc2ccccc2)cc1Cl` (stereo not shown) [Compound 106, {2-[2-[2-(4-Amino-3,5-dichlorophenyl)-2-hydroxyethylamino]ethoxy]ethyl}phenylacetate-fumarate]: the EC50 was 7.94 nM.

The same assay, now with this note: Cavia porcellus; in vitro relaxation of methacholine-contracted guinea pig trachea segments, cumulative dose/effect curve, 37° C., n = 3 to 6; read-out: -log[EC50 (mol/l)] (converted).
As for `Nc1c(Cl)cc(C(O)CNCCCCCCOC(=O)CCc2ccc(O)cc2)cc1Cl` (stereo not shown) [Compound 17, {6-[2-(4-Amino-3,5-dichlorophenyl)-2-hydroxyethylamino]-1-hexyl}[3-(4-hydroxyphenyl)]propionate-hydrochloride], the EC50 was 20 nM.
Take `Nc1c(Cl)cc(C(O)CNCCCCCC(=O)OCCc2cccc3ccccc23)cc1Cl` (stereo not shown) [Compound 19, 2-(1-Naphthyl)ethyl 6-[2-(4-amino-3,5-dichlorophenyl)-2-hydroxyethylamino]hexanoate]: the EC50 is 6.31 nM.
Still for that read-out and setting: in the case of `Nc1c(Cl)cc(C(O)CNCCCCCC(=O)OCCc2ccccn2)cc1Cl` (stereo not shown) [Compound 32, 2-(2-Pyridyl)ethyl6-[2-(4-amino-3,5-dichlorophenyl)-2-hydroxyethylamino]hexanoate-hemifumarate] it was 15.8 nM; in that of `Nc1c(Cl)cc(C(O)CNCCCCCCOC(=O)Cc2cccc3ccccc23)cc1Cl` (stereo not shown) [Compound 34, {6-[2-(4-Amino-3,5-dichlorophenyl)-2-hydroxyethylamino]-1-hexyl}1-naphthylacetate-maleate], 3.16 nM; in that of `Nc1c(Cl)cc(C(O)CNCCCCCC(=O)OCCc2ccc(O)cc2)cc1Cl` (stereo not shown) [Compound 37, 2-(4-Hydroxyphenyl)ethyl 6-[2-(4-amino-3,5-dichlorophenyl)-2-hydroxyethylamino]hexanoate], 2 nM.
On the same count and under the same terms, under `O=C(CCCCCNCC(O)c1ccc(O)c(CO)c1)OCCCCc1ccccc1` (stereo not shown) [Compound 64, 4-Phenylbutyl 6-[2-hydroxy-2-(4-hydroxy-3-hydroxymethylphenyl)ethylamino]hexanoate-oxalate] stands 10 nM.
As to `N#Cc1cc(C(O)CNCCCCCC(=O)OCCc2ccccc2)cc(Cl)c1N` (stereo not shown) [Compound 74, 2-Phenylethyl 6-[2-(4-amino-5-chloro-3-cyanophenyl)-2-hydroxyethylamino]hexanoate-hemifumarate], the EC50 was 3.98 nM.
`Nc1ccc(C(O)CNCCCCCCOC(=O)Cc2ccccc2Cl)c(Cl)c1Cl` (stereo not shown) [Compound 82, {6-[2-(4-Amino-2,3-dichlorophenyl)-2-hydroxyethylamino]-1-hexyl}2-chlorophenylacetate-hemifumarate]: the EC50 was 10 nM.
The same measure, in the same setting: in the case of `Nc1c(Cl)cc(C(O)CNCCCCCC(=O)OCCc2c[nH]c3ccccc23)cc1Cl` (stereo not shown) [Compound 103, 2-(3-Indolyl)ethyl 6-[2-(4-amino-3,5-dichlorophenyl)-2-hydroxyethylamino]hexanoate-hemifumarate] it was 3.16 nM.

(Values after patent US5599966A, “Substituted ethanolamine esters” (BYK Nederland BV, priority 1992, dated 1997).)
